Test results as given in patent publication US8404738B2 (Hoffmann-La Roche Inc., priority 2011, dated 2013).

Key:
[1] = target: T1, recombinant human HDAC8 (Homo sapiens, UniProt Q9BY41); experiment: HDAC8 inhibition: recombinant HDAC8 fluorometric assay; assay type: biochemical; conditions: recombinant human HDAC8, substrate Ac-Arg-His-Lys-Lys(ε-acetyl)-AMC; read-out: HDAC8 IC50
T1 construct: made in house; host or cells: insect cells
T1 sequence (Q9BY41 1-377): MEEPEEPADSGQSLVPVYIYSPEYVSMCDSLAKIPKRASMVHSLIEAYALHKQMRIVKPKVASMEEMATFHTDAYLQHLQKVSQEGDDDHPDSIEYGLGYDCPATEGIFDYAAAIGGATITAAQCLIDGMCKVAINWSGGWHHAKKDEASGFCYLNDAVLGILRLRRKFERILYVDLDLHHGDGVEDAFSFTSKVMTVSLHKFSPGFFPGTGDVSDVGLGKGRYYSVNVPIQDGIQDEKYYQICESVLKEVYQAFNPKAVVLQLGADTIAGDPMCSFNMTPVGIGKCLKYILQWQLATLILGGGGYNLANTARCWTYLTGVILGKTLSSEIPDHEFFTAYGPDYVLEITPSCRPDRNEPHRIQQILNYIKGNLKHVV
Outline: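 Recombinant human HDAC8 from insect cells was preincubated with compound for 15 min at rt, then given Ac-Arg-His-Lys-Lys(ε-acetyl)-AMC substrate for 30 min at rt. IC50 came from normalized percent inhibition with curve fitting.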

[2] = target: T2, HDAC6 (Homo sapiens, UniProt Q9UBN7); experiment: Tubulin acetylation cytoblot assay (A549 cells); assay type: cell-based; conditions: 17-18 h incubation, tubulin acetylation as marker of HDAC6 inhibition, read-out: Tub-Ac EC50
T2 construct: endogenous in cells; host or cells: A549 cells
T2 sequence (Q9UBN7 1-1215): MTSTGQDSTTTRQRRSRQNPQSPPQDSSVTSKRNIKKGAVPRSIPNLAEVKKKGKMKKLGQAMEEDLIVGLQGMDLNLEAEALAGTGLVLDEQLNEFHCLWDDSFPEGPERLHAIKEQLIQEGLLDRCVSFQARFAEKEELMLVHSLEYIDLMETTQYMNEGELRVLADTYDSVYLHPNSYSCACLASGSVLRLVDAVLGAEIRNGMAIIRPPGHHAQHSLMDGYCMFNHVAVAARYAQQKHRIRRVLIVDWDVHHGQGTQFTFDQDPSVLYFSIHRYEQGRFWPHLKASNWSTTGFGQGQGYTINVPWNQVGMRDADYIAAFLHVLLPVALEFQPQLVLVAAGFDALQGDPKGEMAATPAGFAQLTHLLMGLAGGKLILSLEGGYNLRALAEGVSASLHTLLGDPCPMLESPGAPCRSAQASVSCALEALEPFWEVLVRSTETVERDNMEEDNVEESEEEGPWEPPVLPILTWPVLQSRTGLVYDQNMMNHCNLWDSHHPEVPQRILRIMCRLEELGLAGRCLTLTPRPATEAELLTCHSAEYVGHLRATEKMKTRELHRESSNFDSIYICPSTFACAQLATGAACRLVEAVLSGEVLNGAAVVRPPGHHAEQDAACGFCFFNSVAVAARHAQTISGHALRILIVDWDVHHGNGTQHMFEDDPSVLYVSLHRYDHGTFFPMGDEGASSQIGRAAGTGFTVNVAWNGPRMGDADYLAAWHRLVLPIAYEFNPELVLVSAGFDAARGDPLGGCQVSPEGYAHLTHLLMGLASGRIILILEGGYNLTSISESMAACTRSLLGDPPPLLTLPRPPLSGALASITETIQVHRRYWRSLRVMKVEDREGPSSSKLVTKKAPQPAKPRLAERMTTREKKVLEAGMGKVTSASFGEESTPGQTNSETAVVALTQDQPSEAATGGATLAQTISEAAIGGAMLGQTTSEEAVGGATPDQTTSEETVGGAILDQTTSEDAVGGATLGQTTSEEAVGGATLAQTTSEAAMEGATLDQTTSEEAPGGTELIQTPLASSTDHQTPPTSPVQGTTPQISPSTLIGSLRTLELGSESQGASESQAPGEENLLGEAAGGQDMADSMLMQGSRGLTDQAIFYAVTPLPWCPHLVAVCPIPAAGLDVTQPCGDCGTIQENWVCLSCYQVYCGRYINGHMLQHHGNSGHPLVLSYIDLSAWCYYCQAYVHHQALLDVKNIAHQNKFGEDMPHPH
Outline: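 Cells were exposed to compound for 17-18 h, then fixed with formaldehyde and permeabilized with cold MeOH. They were probed for 4 h at 4° C with anti-acetylated tubulin plus HRP anti-mouse IgG (each 1:750), and read by ECL luminescence. EC50 values came from curves normalized to top and bottom controls.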

[3] = test system: p21 promoter-luciferase construct; experiment: p21 reporter gene induction (HeLa cells, p21 promoter-luciferase construct); conditions: for p21 RP3: relative gene level of p21 compared to MS275 at 3 μM; for p21 RP10: relative level of p21 compared to MS275 at 10 μM; for p21 RP30: relative level of p21 compared to MS275 at 30 μM;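 as to all read-outs here: transfected HeLa cells exposed to compound for 15 h, luciferase luminescence read from lysates, p21 promoter lacks p53 site, proxy for cellular HDAC1/2/3 inhibition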
Description: As a surrogate for in-cell HDAC1/2/3 inhibition, p21 induction was used as a counterscreen to evaluate the selectivity of the compounds in the present invention toward HDAC6 or HDAC8.
The novel compounds of the present invention were tested for their ability to induce p21 gene expression using a reporter gene assay involving HeLa cells transfected with a p21 promoter-luciferase construct. The p21 promoter contained the Sp1/Sp3 binding site for HDAC but not the upstream p53 binding site. Briefly, the day before transfection, HeLa cells were seeded at 11,000 cells/well in a 96-well culture plate and incubated at 37° C. in 5% CO2 overnight. A transfection media was prepared prior to transfection according to the following procedure: (1) 5 μl serum-free DMEM, 0.15 μl Fugene 6 reagent, 40 ng p21-luc, 10 ng GFP were mixed gently and incubated at rt for 30 minutes; (2), then 98 μl DMEM (with 10% FBS, 1% penicillin and streptomycin) was added to the DNA: Fugene 6 reagent complex and mixed gently. For transfection, the medium was removed and replaced with 100 μl/well transfection media which was prepared according to the procedure above. After incubating the cells for 24 hours at 37° C. in 5% CO2, fresh media and test compounds were added to the wells and the cells further incubated for 15 hours at 37° C. in 5% CO2. Cells were lysed by adding 80 μl/well of a cell culture lysis reagent (Promega). 50 μl of each lysate was taken for GFP detection using an excitation wavelength of 486 nm and detection at 527 nm. 100 μl luciferase assay reagent (Promega) was then added to every 20 μl cell lysate for luminometer detection.

Row | Structure (SMILES) | IC50 [1] [nM] | EC50 [2] [nM] | p21 RP3 [3] | p21 RP10 [3] | p21 RP30 [3]
1 | CC1(Nc2ccc(C(=O)NO)cc2)CCN(C(C)(C)c2ccccc2)C1=O (stereo not shown) [Example 64, N-Hydroxy-4-[3-methyl-1-(1-methyl-1-phenyl-ethyl)-2-oxo-pyrrolidin-3-ylamino]-benzamide] | 320 | 10200 | 0.30 | 0.04 | 0.02
2 | O=C(NO)c1ccc(NC2CCN(c3ccccc3)C2=O)cc1F (stereo not shown) [Example 66, 2-Fluoro-N-hydroxy-4-(2-oxo-1-phenyl-pyrrolidin-3-ylamino)-benzamide] | 1250 | 2420 | 0.01 | 0.01 | 0.00
3 | O=C(NO)c1ccc(NC2CCN(c3cccc(Cl)c3)C2=O)cc1F (stereo not shown) [Example 67, 4-[1-(3-Chloro-phenyl)-2-oxo-pyrrolidin-3-ylamino]-2-fluoro-N-hydroxy-benzamide] | 2120 | 6230 | 0.40 | 0.17 | 0.02
4 | O=C(NO)c1ccc(NC2CCN(c3ccccc3)C2=O)c(Cl)c1 (stereo not shown) [Example 69, 3-Chloro-N-hydroxy-4-(2-oxo-1-phenyl-pyrrolidin-3-ylamino)-benzamide] | 850 | 8230 | 0.36 | 0.15 | −0.03
5 | COc1cccc(N2CC(Nc3ccc(C(=O)NO)cc3)CC2=O)c1 (stereo not shown) [Example 74, N-Hydroxy-4-[1-(3-methoxy-phenyl)-5-oxo-pyrrolidin-3-ylamino]-benzamide] | 1010 | 1840 | −0.07 | 0.07 | 0.12
6 | O=C(NO)c1ccc(NC2CC(=O)N(Cc3ccccc3)C2)cc1 (stereo not shown) [Example 75, 4-(1-Benzyl-5-oxo-pyrrolidin-3-ylamino)-N-hydroxy-benzamide] | 860 | 4560 | 0.19 | 0.07 | 0.11
7 | O=C(NO)c1ccc(NC2CCN(c3ccc(Cl)cc3)C2)cc1 (stereo not shown) [Example 80, 4-[1-(4-Chloro-phenyl)-pyrrolidin-3-ylamino]-N-hydroxy-benzamide] | 4650 | 4260 | 0.37 | 0.08 | −0.05
8 | O=C(NO)c1ccc(NC2CCN(c3c(Cl)cccc3Cl)C2)cc1 (stereo not shown) [Example 81, 4-[1-(2,6-Dichloro-phenyl)-pyrrolidin-3-ylamino]-N-hydroxy-benzamide] | 1920 | 720 | 0.08 | −0.04 | −0.01
9 | O=C(NO)c1ccc(NC2CCN(c3ncccn3)C2)cc1 (stereo not shown) [Example 83, N-Hydroxy-4-(1-pyrimidin-2-yl-pyrrolidin-3-ylamino)-benzamide] | 1210 | 1110 | 0.37 | 0.11 | 0.08
10 | CC1(Nc2ccc(C(=O)NO)cc2)C(=O)N(Cc2cccc(Cl)c2)c2ccccc21 (stereo not shown) [Example 93, 4-[1-(3-chloro-benzyl)-3-methyl-2-oxo-2,3-dihydro-1H-indol-3-ylamino)-N-hydroxy-benzamide] | 1920 | 410 | 0.58 | 0.12 | 0.05
11 | CC1(Nc2ccc(C(=O)NO)cc2)C(=O)N(c2cccc(Cl)c2)c2ccccc21 (stereo not shown) [Example 96, 4-[1-(3-chloro-phenyl)-3-methyl-2-oxo-2,3-dihydro-1H-indol-3-ylamino)-N-hydroxy-benzamide] | 1400 | 320 | 0.86 | 1.34 | 0.02

The next lines start with results.

Row | IC50 [1] [nM] | EC50 [2] [nM] | Structure (SMILES) | p21 RP3 [3] | p21 RP10 [3] | p21 RP30 [3]
12 | 1480 | 2340 | O=C(NO)c1ccc(NC2CC(=O)N(c3cccc(Cl)c3)C2)cc1 (stereo not shown) [Example 72, 4-[1-(3-Chloro-phenyl)-5-oxo-pyrrolidin-3-ylamino]-N-hydroxy-benzamide] | 0.16 | 0.14 | 0.09
13 | 1830 | 1810 | CC1C(=O)N(c2ccc(Cl)cc2)CC1Nc1ccc(C(=O)NO)cc1 (stereo not shown) [Example 78, 4-[1-(4-Chloro-phenyl)-4-methyl-5-oxo-pyrrolidin-3-ylamino]-N-hydroxy-benzamide] | 0.64 | 0.15 | 0.04
14 | 1700 | 4540 | O=C(NO)c1ccc(NC2CCN(c3ccccc3)C2)cc1 (stereo not shown) [Example 79, N-Hydroxy-4-(1-phenyl-pyrrolidin-3-ylamino)-benzamide] | 0.21 | 0.09 | 0.04
15 | 2360 | 1430 | O=C(NO)c1ccc(NC2CCN(c3ccc(Cl)cc3Cl)C2)cc1 (stereo not shown) [Example 82, 4-[1-(2,4-Dichloro-phenyl)-pyrrolidin-3-ylamino]-N-hydroxy-benzamide] | 0.14 | −0.08 | −0.06
16 | 1120 | 7310 | O=C(NO)c1ccc(NC2CCN(S(=O)(=O)c3ccc(F)cc3)C2)cc1 (stereo not shown) [Example 85, 4-[1-(4-Fluoro-benzenesulfonyl)-pyrrolidin-3-ylamino]-N-hydroxy-benzamide] | 0.35 | 0.10 | 0.05
17 | 1280 | 5230 | CC1(Nc2ccc(C(=O)NO)cc2)C(=O)N(Cc2ccccc2)c2ccccc21 (stereo not shown) [Example 91, 4-(1-Benzyl-3-methyl-2-oxo-2,3-dihydro-1H-indol-3-ylamino)-N-hydroxy-benzamide] | 2.06 | 2.66 | 0.84
18 | 1740 | 330 | CC1(Nc2ccc(C(=O)NO)cc2)C(=O)N(Cc2ccccc2Cl)c2ccccc21 (stereo not shown) [Example 92] | 0.56 | 0.20 | 0.40
19 | 850 | 80 | CC1(Nc2ccc(C(=O)NO)cc2)C(=O)N(c2ccccc2)c2ccccc21 (stereo not shown) [Example 95, N-hydroxy-4-(3-methyl-2-oxo-1-phenyl-2,3-dihydro-1H-indol-3-ylamino)-benzamide] | 0.58 | 0.39 | 0.60
20 | 2080 | 200 | CC1(Nc2ccc(C(=O)NO)cc2)C(=O)N(c2ccc(Cl)cc2)c2ccc(F)cc21 (stereo not shown) [Example 97, 4-[1-(4-Chloro-phenyl)-5-fluoro-3-methyl-2-oxo-2,3-dihydro-1H-indol-3-ylamino]-N-hydroxy-benzamide] | 2.39 | 3.56 | 0.07
